# In the CheMixHub viscosity set:
# ± gives the uncertainty stated by the source.
# Assay: xn = mol fraction of the nth substance listed
smiles,measurement,setting,value
CC1COC(=O)O1 (stereo unspecified) + CN(C)C=O,viscosity,"298.15 K, 101.33 kPa, x1 = 0.1053",0.89 ± 0.006 mPa·s
same,viscosity,"298.15 K, 101.33 kPa, x1 = 0.1593",0.942 ± 0.006 mPa·s
same,viscosity,"298.15 K, 101.33 kPa, x1 = 0.2227",1.004 ± 0.007 mPa·s
same,viscosity,"298.15 K, 101.33 kPa, x1 = 0.2607",1.047 ± 0.007 mPa·s
same,viscosity,"298.15 K, 101.33 kPa, x1 = 0.3155",1.107 ± 0.007 mPa·s
same,viscosity,"298.15 K, 101.33 kPa, x1 = 0.3624",1.164 ± 0.007 mPa·s
same,viscosity,"298.15 K, 101.33 kPa, x1 = 0.4248",1.246 ± 0.008 mPa·s
same,viscosity,"298.15 K, 101.33 kPa, x1 = 0.4476",1.278 ± 0.008 mPa·s
same,viscosity,"298.15 K, 101.33 kPa, x1 = 0.5094",1.37 ± 0.009 mPa·s
same,viscosity,"298.15 K, 101.33 kPa, x1 = 0.5658",1.462 ± 0.009 mPa·s
same,viscosity,"298.15 K, 101.33 kPa, x1 = 0.6334",1.582 ± 0.01 mPa·s
same,viscosity,"298.15 K, 101.33 kPa, x1 = 0.659",1.63 ± 0.01 mPa·s
same,viscosity,"298.15 K, 101.33 kPa, x1 = 0.7108",1.742 ± 0.011 mPa·s
same,viscosity,"298.15 K, 101.33 kPa, x1 = 0.7559",1.835 ± 0.012 mPa·s
same,viscosity,"298.15 K, 101.33 kPa, x1 = 0.8147",1.983 ± 0.012 mPa·s
same,viscosity,"298.15 K, 101.33 kPa, x1 = 0.8705",2.117 ± 0.013 mPa·s
same,viscosity,"298.15 K, 101.33 kPa, x1 = 0.9299",2.284 ± 0.014 mPa·s
same,viscosity,"298.15 K, 101.33 kPa, x1 = 0.954",2.357 ± 0.015 mPa·s
same,viscosity,"308.15 K, 101.33 kPa, x1 = 0.0453",0.742 ± 0.005 mPa·s
same,viscosity,"308.15 K, 101.33 kPa, x1 = 0.1078",0.787 ± 0.005 mPa·s
same,viscosity,"308.15 K, 101.33 kPa, x1 = 0.1606",0.828 ± 0.005 mPa·s
same,viscosity,"308.15 K, 101.33 kPa, x1 = 0.2114",0.87 ± 0.006 mPa·s
same,viscosity,"308.15 K, 101.33 kPa, x1 = 0.2565",0.91 ± 0.006 mPa·s
same,viscosity,"308.15 K, 101.33 kPa, x1 = 0.2989",0.95 ± 0.006 mPa·s
same,viscosity,"308.15 K, 101.33 kPa, x1 = 0.3551",1.005 ± 0.007 mPa·s
same,viscosity,"308.15 K, 101.33 kPa, x1 = 0.4045",1.058 ± 0.007 mPa·s
same,viscosity,"308.15 K, 101.33 kPa, x1 = 0.4505",1.109 ± 0.007 mPa·s
same,viscosity,"308.15 K, 101.33 kPa, x1 = 0.4988",1.167 ± 0.008 mPa·s
same,viscosity,"308.15 K, 101.33 kPa, x1 = 0.5351",1.213 ± 0.008 mPa·s
same,viscosity,"308.15 K, 101.33 kPa, x1 = 0.6158",1.33 ± 0.009 mPa·s
same,viscosity,"308.15 K, 101.33 kPa, x1 = 0.6532",1.38 ± 0.009 mPa·s
same,viscosity,"308.15 K, 101.33 kPa, x1 = 0.7153",1.48 ± 0.009 mPa·s
same,viscosity,"308.15 K, 101.33 kPa, x1 = 0.7499",1.539 ± 0.01 mPa·s
same,viscosity,"308.15 K, 101.33 kPa, x1 = 0.802",1.638 ± 0.01 mPa·s
same,viscosity,"308.15 K, 101.33 kPa, x1 = 0.8517",1.731 ± 0.011 mPa·s
same,viscosity,"308.15 K, 101.33 kPa, x1 = 0.9033",1.841 ± 0.012 mPa·s
same,viscosity,"318.15 K, 101.33 kPa, x1 = 0.049",0.664 ± 0.005 mPa·s
same,viscosity,"318.15 K, 101.33 kPa, x1 = 0.0961",0.694 ± 0.005 mPa·s
same,viscosity,"318.15 K, 101.33 kPa, x1 = 0.1672",0.74 ± 0.005 mPa·s
same,viscosity,"318.15 K, 101.33 kPa, x1 = 0.2118",0.772 ± 0.005 mPa·s
same,viscosity,"318.15 K, 101.33 kPa, x1 = 0.2639",0.811 ± 0.005 mPa·s
same,viscosity,"318.15 K, 101.33 kPa, x1 = 0.3122",0.849 ± 0.006 mPa·s
same,viscosity,"318.15 K, 101.33 kPa, x1 = 0.3528",0.884 ± 0.006 mPa·s
same,viscosity,"318.15 K, 101.33 kPa, x1 = 0.4228",0.946 ± 0.006 mPa·s
same,viscosity,"318.15 K, 101.33 kPa, x1 = 0.4487",0.97 ± 0.006 mPa·s
same,viscosity,"318.15 K, 101.33 kPa, x1 = 0.4941",1.015 ± 0.007 mPa·s
same,viscosity,"318.15 K, 101.33 kPa, x1 = 0.5567",1.081 ± 0.007 mPa·s
same,viscosity,"318.15 K, 101.33 kPa, x1 = 0.6184",1.152 ± 0.007 mPa·s
same,viscosity,"318.15 K, 101.33 kPa, x1 = 0.6678",1.216 ± 0.008 mPa·s
same,viscosity,"318.15 K, 101.33 kPa, x1 = 0.7127",1.271 ± 0.008 mPa·s
same,viscosity,"318.15 K, 101.33 kPa, x1 = 0.7415",1.311 ± 0.008 mPa·s
same,viscosity,"318.15 K, 101.33 kPa, x1 = 0.8179",1.424 ± 0.009 mPa·s
same,viscosity,"318.15 K, 101.33 kPa, x1 = 0.8689",1.505 ± 0.01 mPa·s
same,viscosity,"318.15 K, 101.33 kPa, x1 = 0.9013",1.56 ± 0.01 mPa·s
CC(C)=O + CCCCn1cc[n+](C)c1.F[B-](F)(F)F,viscosity,"298.15 K, 101 kPa, x1 = 0.0973",77.6 ± 14 mPa·s
CC[N+](CC)(CC)CC.Cc1ccc(S(=O)(=O)[O-])cc1 + OCCO,viscosity,"298.15 K, 101 kPa, x1 = 0.2",51.2 ± 0.5 mPa·s
same,viscosity,"303.15 K, 101 kPa, x1 = 0.2",40.8 ± 0.5 mPa·s
same,viscosity,"308.15 K, 101 kPa, x1 = 0.2",32.8 ± 0.4 mPa·s
same,viscosity,"313.15 K, 101 kPa, x1 = 0.2",24.4 ± 0.3 mPa·s
same,viscosity,"318.15 K, 101 kPa, x1 = 0.2",22.2 ± 0.3 mPa·s
same,viscosity,"323.15 K, 101 kPa, x1 = 0.2",17.4 ± 0.2 mPa·s
